Patent publication US7235392B2, “Apoptotic EBV-transformed lymphocytes, a therapeutic agent for post-transplant lymphoproliferative disorder” (The Ohio State University Research Foundation, priority 2001, dated 2007)

Tests used:
[1] = tested on: PA-Lymphoblastoid Cell Line; experiment: PA-Lymphoblastoid Cell Line: effect of oxygen deprivation in the presence of 3 sensitizers (cell counts); format: cell-based; conditions: for cell count, Time (hour) 0: time 0 h; for cell count, Time (hour) 0 / cell count, Time (hour) 4 / cell count, Time (hour) 20: solutions and cells bubbled with nitrogen for 15 minutes (oxygen deprivation); for cell count, Time (hour) 4: time 4 h; for cell count, Time (hour) 20: time 20 h
Method: PA-Lymphoblastoid Cell Line: Study of the effect of oxygen deprivation in the presence of 3 sensitizers Six solutions were prepared having the solutions and the cells from each of the 6 sets were “bubbled” with nitrogen separately for 15 minutes before being mixed.

[2] = tested on: EBV infected human lymphoblastoid cells (LCLs); conditions: 10 mM glutathione
[3] = tested on: LCLs; experiment: Cell synchronization with aphidicolin, flow cytometric cell cycle analysis of propidium iodide stained cells; format: cell-based, human
From the text: Using a method described by Matherly^1 cell synchronization may be achieved with the drug aphidicolin, a DNA polymerase inhibitor. This drug prevents the cells from entering S-phase, the phase during which the cells replicate their DNA. Therefore, the cells accumulate at G1 phase, immediately prior to the start of S phase. These effects of aphidicolin are reversible; the cells return to normal cell-cycling soon after the drug is removed from the culture by washing. Thus, because all of the cells were synchronized together in G1, after removal of aphidicolin, they will proceed through S-phase together. Using flow cytometric analyis of propidium-iodine stained cells, as described by Krishan^2, we were able to determine the stage of cell cycle of the cultures:
Consequently, we hypothesize that treatment with aphidicolin will increase the effectiveness of specific killing via RBO-DNA photochemistry.

SMILES | cell count, Time (hour) 0 [1] | cell count, Time (hour) 4 [1] | cell count, Time (hour) 20 [1] | cell growth [2] | hypoxic toxicity ([1]; oxygen deprivation, conclusion from cell counts) | proportion of cells in S-phase ([3]; after aphidicolin treatment and removal) | time of peak proportion of cells in S-phase after removal of aphidicolin ([3]; after removal of aphidicolin from solution)
Cc1cc2nc3c(=O)[nH]c(=O)nc-3n(C[C@H](O)[C@H](O)[C@H](O)CO)c2cc1C [Riboflavin (RB), Riboflavin] | 1 million cells/mL | 0.9 million cells/mL | 0.63 million cells/mL | – | – | – | –
Nc1n[n+]([O-])c2ccccc2[n+]1[O-] [Tirapazamine (TPZ), Tirapazamine] | 0.4 million cells/mL | 0.4 million cells/mL | 0.36 million cells/mL | – | – | – | –
N[C@@H](CCC(=O)N[C@@H](CS)C(=O)NCC(=O)O)C(=O)O [glutathione] | – | – | – | grow normally | – | – | –
Cc1cc2c(cc1C)[n+]([O-])c1c(=O)[nH]c(=O)nc-1n2CC(O)C(O)C(O)CO (stereo not shown) [RBO, riboflavin N-oxide] | 0.45 million cells/mL | 0.46 million cells/mL | 0.06 million cells/mL | – | high hypoxic toxicity | – | –
C[C@@]1(CO)[C@H](O)CC[C@@]2(C)[C@H]1CC[C@H]1C[C@@H]3C[C@@]12CC[C@]3(O)CO [aphidicolin] | – | – | – | – | – | significantly increases | 6 h
